Measurements as given in patent publication US20040102454A1, “Phenylahistin and the phenylahistin analogs, a new class of anti-tumor compounds” (priority 1998, published 2004).
pKi: −log10 of the molar value. ≈ marks a conversion by molar mass, not a printed value.

Columns and labels:
[1] = Solubility of phenylahistin in solvents; format: physicochemical
[2] = tested on: A-549 cells derived from human lung cancer; assay: Cell proliferation inhibition, MTT (Example 2); format: cell-based; conditions: A549, read-out: IC50 (concentration that inhibited cell proliferation 50%), A-549, 48 hours
Procedure: Into each well of a 96-well microtiter plate, 100 μl of A-549 cells derived from human lung cancer prepared to 10^5 cells/ml in a culture medium obtained by adding 10% bovine fetus serum to EMEM culture medium (Nissui Seiyaku Co., Ltd.) having antitumor effect against A-549 cells derived from human lung cancer was placed. Methanol solution of racemic NSCL-96F037 obtained as in Example 1 was added to the wells of the uppermost row, specimens were diluted by the half-log dilution method and added, and the plate was incubated in a carbon dioxide gas incubator at 37° C. for 48 hours. The result was added in lots of 10 μl with MTT reagent (3-(4,5-dimethyl-2-thiazole)-2,5-diphenyl-2H-tetra bromide) (1 mg/ml•PBS), followed by incubation in a carbon dioxide gas incubator at 37° C. for 6 hours. The culture medium was discarded and the crystal of produced in the cells was dissolved in 100 μl/well of dimethylsulfoxide. Absorption of 595 nm light was then measured with a microplate reader.

[3] = tested on: yeast strain Saccharomyces cerevisise HF7C; assay: Antimicrobial test, liquid culture medium dilution method; format: cell-based
Procedure: Using colibacillus strain JM109 as a gram-negative bacterium, Bacillus natto as a […] and Aspergillus niger IFO6341 as a mold, the following antimicrobial test was conducted by the filter paper agar flat plate method, wherein 100 μg of specimen was placed on 9 mm filter paper, dried in air, and standard agar culture medium was used for bacteria and potato dextrose agar culture medium for mold. […] An antimicrobial test was further conducted by the liquid culture medium dilution method using the yeast strain Saccharomyces cerevisise HF7C.

[4] = tested on: Cell strain A431; assay: Cell cycle inhibiting activity, flow cytometer and microscopic observation; format: cell-based, human
Procedure: Cell strain A431 derived from […] was used. EMEM culture medium containing 10% bovine fetus serum and 1% MEM nonessential amino acid solution (SIGMA M2025) was used to incubate A431 cells at 37° C. in an incubator saturated with 5% carbon dioxide gas and water vapor. The refined specimen of racemic phenylahistin obtained in EXAMPLE 1 was added to the cells in the log-growth phase and progression of the cell cycle was analyzed by flow cytometer and microscopic observation. The results, shown in Table 1, indicate that this phenylahistin was useful as a cell cycle inhibitor.

[5] = tested on: 38 tumor cell lines; assay: Human Cancer Cell Line Panel (HCC panel) assay, whole panel; format: cell-based; conditions: (−)-PLH content 24.1%, read-out: GI50 values, range over 38 cell lines
Procedure: The antitumor activity of PLH was evaluated by the Human Cancer Cell Line Panel (HCC panel) assay, see Yamori T., Jap. J Cancer Chemother., (1997), 24, 129-35. This HCC panel consists of 38 tumor cell lines including 7 lung cancer, 6 stomach, 6 colon, 5 ovary, 6 central nerve system, 5 breast, 2 kidney and 1 melanoma cell lines. Each tumor cell was seeded in 96-well tissue culture plates and incubated overnight. Various concentrations (5 doses; final 10^−4, 10^−5, 10^−6, 10^−7 and 10^−8 M) of PLH were added, and the cells were incubated for 48 hours. […] All mice were obtained from Japan SLC (Shizuoka, Japan), P388 leukemia cells were obtained from Dainippon Pharmaceuticals Inc. (Osaka, Japan), Lewis Lung Carcinoma from Riken Cell Bank (Tsukuba, Japan), and Colon 26 cells from the National Cancer Center, Japan (Tokyo, Japan).

[6] = tested on: Lewis Lung Carcinoma cells; assay: In vivo antitumor activity against Lewis Lung Carcinoma
Procedure: (§1) Male BDF1 mice (6 weeks old) were inoculated subcutaneously in the right flank region with Lewis Lung Carcinoma cells (1×10^5 cells/body) on day 0. PLH [(−)-PLH content; 41.7%] was suspended in 10% ethanol-saline, and was administered daily at a dose of 24 mg/kg, 72 mg/kg, or 240 mg/kg intraperitoneally, as a single injection (0.2 ml/body), from days 1 to 14. Each group consisted of six mice. Mice were weighed, and the length (L) and the width (W) of the tumor were measured three times a week. On day 15, mice were sacrificed, and the tumor was excised and weighed. The estimated tumor weight (ETW) was calculated according to the following formula:
(§2) ETW (mg)=L (mm)×W^2 (mm^2 )/2,
where L represents the length of the tumor and W represents the width of the tumor. The suppression rate was calculated according to the following formula:
(§3) Suppression rate (%)=[1×(TWt/TWc)]×100,
(§4) Average and standard errors were calculated for each group. Variance analysis was performed by the Bartlett method (significance level: 5%), and if the variance was uniform, a Dunnett's multiple comparison test was performed. However, if the variance was not uniform, rank conversion was performed followed by variance analysis again by the Bartlett method (significance level: 5%). Significance was established at the p<0.05 level.

[7] = tested on: Colon 26 cells; assay: In vivo antitumor activity against Colon 26
Procedure: as §1, §2, §3, §4
Male CDFI mice (6 weeks old) were inoculated subcutaneously in the right flank region with Colon 26 cells (1×10^5 cells/body) on day 0. Each group consisted of six mice. Preparation and administration of PLH, and the evaluation of antitumor activity was carried out as described for Lewis Lung Carcinoma, in EXAMPLE 14.

[8] = target: bovine brain tubulin; assay: [^3H]CLC binding to tubulin and competition assay; conditions: Dixon plot, assuming competitive inhibition; 0.5 μM [^3H]CLC; read-out: estimated Ki value for CLC binding
Procedure: [^3H]CLC binding to tubulin was evaluated by the ultrafiltration method of Takahashi, M., et al., Biochim. Biophys. […] The concentration of unbound [^3H]CLC in the filtrates was determined using a EcoLite™(+) liquid scintillator from ICN Pharmaceuticals Inc. (Costa Mesa, Calif.). Specific bound [^3H]CLC concentrations were determined by adding an excess (×100) of unlabeled CLC to the reaction mixture.
For the competition assay, bovine brain tubulin (0.2 mg/ml) was incubated in the microtubule assembly buffer with 0.5 μM [^3H]CLC and various concentrations of competitors for 20 min at 37° C. [^3H]CLC binding was measured as described above.

[9] = calculated from (−)-PLH content 41.7%

C=CC(C)(C)c1[nH]cnc1/C=C1\NC(=O)[C@H](Cc2ccccc2)NC1=O (racemic) [PLH, phenylahistin]
solubility ([1]; in ethyl acetate, chloroform, methanol, and pyridine): soluble | solubility ([1]; in water, benzene, and toluene): only slightly soluble | IC50 [2]: 0.3 µg/mL (≈ 0.856 µM) | antimicrobial activity [3]: no antimicrobial activity | Inhibiting effect (cell cycle) ([4]; Concentration 0.5 μg/ml): Absent (Absent: The cell cycle stopped at the G2/M phase in less than 10% of the cells.) | Inhibiting effect (cell cycle) ([4]; Concentration 1.0 μg/ml): Absent (Absent: The cell cycle stopped at the G2/M phase in less than 10% of the cells.) | Inhibiting effect (cell cycle) ([4]; Concentration 2.0 μg/ml): Slight (Slight: The cell cycle stopped at the G2/M phase in not less than 10% and less than 50% of the cells.) | Inhibiting effect (cell cycle) ([4]; Concentration 4.0 μg/ml): Slight (Slight: The cell cycle stopped at the G2/M phase in not less than 10% and less than 50% of the cells.) | Inhibiting effect (cell cycle) ([4]; Concentration 8.0 μg/ml): Present (Present: The cell cycle stopped at the G2/M phase in not less that 50% of the cells.) | Inhibiting effect (cell cycle) ([4]; Concentration 32.0 μg/ml): Present (Present: The cell cycle stopped at the G2/M phase in not less that 50% of the cells.) | GI50 [5]: 0.23 to 40 µM | rate of suppression (excised tumor weight) ([6]; 24 mg/kg/day): 9.9% | weight of the excised tumor on the fifteenth day ([6]; 24 mg/kg/day): 2,941 mg | estimated tumor weight (ETW) ([6]; 24 mg/kg/day, day 7): 86 mg | estimated tumor weight (ETW) ([6]; 24 mg/kg/day, day 15): 2,244 mg | rate of suppression (excised tumor weight) ([6]; 72 mg/kg/day): 27.1% | weight of the excised tumor on the fifteenth day ([6]; 72 mg/kg/day): 2,380 mg | estimated tumor weight (ETW) ([6]; 72 mg/kg/day, day 7): 34 mg | estimated tumor weight (ETW) ([6]; 72 mg/kg/day, day 15): 2,142 mg | mice died ([6]; 72 mg/kg/day, on day 11): 1 mouse | body weight ([6]; 240 mg/kg/day): markedly lower than control values after day 3, and significantly lower on day 6 | rate of suppression (excised tumor weight) ([6]; 240 mg/kg/day): 81.0% | weight of the excised tumor on the fifteenth day ([6]; 240 mg/kg/day): 619 mg | estimated tumor weight (ETW) ([6]; 240 mg/kg/day, day 7): 34 mg | suppression of the ETW ([6]; 240 mg/kg/day, day 10): 81.8% | suppression of the ETW ([6]; 240 mg/kg/day, day 13): 82.3% | estimated tumor weight (ETW) ([6]; 240 mg/kg/day, day 15): 617 mg | suppression of the ETW ([6]; 240 mg/kg/day, day 15): 73.2% | mice died ([6]; 240 mg/kg/day, on day 13): 1 mouse | body weight ([6]; 24 and 72 mg/kg/day): little change in body weight | 95% confidence limit of ED50 ([6]; PLH with (−)-PLH content 41.7%): 22.0˜504.1 mg/kg/day | ED50 ([6]; linear regression of suppression rate, PLH with (−)-PLH content 41.7%): 105.3 mg/kg/day | mice died ([6]; mouse, in vivo): None | rate of suppression (excised tumor weight) ([7]; 24 mg/kg/day): 4.0% | weight of the excised tumor on the fifteenth day ([7]; 24 mg/kg/day): 1,113 mg | body weight ([7]; 24 mg/kg/day and 72 mg/kg/day): No marked changes in the weight | increments of ETW ([7]; 24 mg/kg/day and 72 mg/kg/day): slightly lower than those of the control group | rate of suppression (excised tumor weight) ([7]; 72 mg/kg/day): 27.3% | weight of the excised tumor on the fifteenth day ([7]; 72 mg/kg/day): 843 mg | body weight ([7]; 240 mg/kg/day): lower than that of the control group from day 3 | mice died ([7]; 240 mg/kg/day): one mouse died on day 12, two died on day 13 and one died on day 14 | rate of suppression (excised tumor weight) ([7]; 240 mg/kg/day): 81.8% | weight of the excised tumor on the fifteenth day ([7]; 240 mg/kg/day): 211 mg | ETW ([7]; 240 mg/kg/day, day 7): 14 mg | suppression rate (ETW) ([7]; 240 mg/kg/day, day 10): 64.4% | suppression rate (ETW) ([7]; 240 mg/kg/day, day 13): 78.8% | ETW ([7]; 240 mg/kg/day, day 15): 254 mg | suppression rate (ETW) ([7]; 240 mg/kg/day, day 15): 85.4% | 95% confidence limit of ED50 ([7]; PLH with (−)-PLH content 41.7%): 29.0˜397.7 mg/kg/day | ED50 ([7]; PLH with (−)-PLH content 41.7%): 107.3 mg/kg/day | mice died ([7]; mouse, in vivo): No mice died

C=CC(C)(C)c1[nH]cnc1/C=C1\NC(=O)[C@H](Cc2ccccc2)NC1=O [(−)-phenylahistin]
pKi [8]: 5.13 | 95% confidence limit of ED50, as (−)-PLH [6, 9]: 9.2˜210.2 mg/kg/day | ED50, calculated dose of (−)-PLH [6, 9]: 43.9 mg/kg/day | 95% confidence limit of ED50, as (−)-PLH [7, 9]: 12.1˜165.8 mg/kg/day | ED50, calculated dose of (−)-PLH [7, 9]: 44.7 mg/kg/day
